The record followed here is PubChem BioAssay AID485280 (The Scripps Research Institute Molecular Screening Center, 2010).

Molecules are shown by their SMILES. Calls of active or inactive are those of the source.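 Rule for the calls: active = CC50 of 24 µM or less, the dose killing half of Huh-7.5 liver cells, showing toxicity to them; inactive = no cytotoxicity, CC50 exceeds 24 µM.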

The assay concerns Huh-7.5 viability, XTT absorbance. In words: cytotoxicity in Huh-7.5 cells, late-stage follow-up, cytotoxicity control for HCV core dimerization inhibitor project, cell-based, absorbance (AID 485280).

By CC50 is commonly meant the concentration at which the toxic effect on the cells reaches its halfway point. Consider `COCCN(C(=O)COC(=O)c1cc2c(s1)CCC2)c1c(N)n(Cc2ccccc2)c(=O)[nH]c1=O`, for which the CC50 is 141 µM (inactive). Take `CCCCCC#CCC#CCC#CCC#CCCCC(=O)O`: the CC50 is 179 µM (inactive). Consider `Cc1ccccc1N1C(=O)/C(=C/c2ccco2)C(=O)NC1=S`, for which the CC50 was 143 µM (inactive).

Turning to `O=C(/C=C/c1ccc(Br)o1)OCc1nc2ccsc2c(=O)[nH]1`, the CC50 was 163 µM (inactive). As for `COc1ccc(NC(=O)CN(C)C(=O)c2cc3c(s2)CCC3)cc1`, the figure is 123 µM (inactive); as for `Cc1ccc(Cc2c(C)nc3nc(SCC(=O)NCCCN4CCCCCC4)nn3c2C)cc1`, 27.4 µM (inactive). As to `CCN(CC(=O)Nc1c(F)cccc1F)C(=O)/C=C/c1ccc2ccccc2n1`, the CC50 is 148 µM (inactive).
